Reference: patent US5416191A, “Bradykinin antagonists” (Cortech, Inc., priority 1993, dated 1995)
Like-named read-outs stand apart in the source and are kept apart here. Peptide text beside a SMILES is read from it.

Key:
[1] = target: T1, bradykinin receptor of the B2 class (rat uterus) (Rattus norvegicus, UniProt P25023); test: Rat uterus (RU) in vitro, antagonism of bradykinin
T1 construct: concentration effect curves to bradykinin (BK) on rat uterus in vitro; from tissue; host or cells: rat uterus
T1 sequence (P25023 1-396): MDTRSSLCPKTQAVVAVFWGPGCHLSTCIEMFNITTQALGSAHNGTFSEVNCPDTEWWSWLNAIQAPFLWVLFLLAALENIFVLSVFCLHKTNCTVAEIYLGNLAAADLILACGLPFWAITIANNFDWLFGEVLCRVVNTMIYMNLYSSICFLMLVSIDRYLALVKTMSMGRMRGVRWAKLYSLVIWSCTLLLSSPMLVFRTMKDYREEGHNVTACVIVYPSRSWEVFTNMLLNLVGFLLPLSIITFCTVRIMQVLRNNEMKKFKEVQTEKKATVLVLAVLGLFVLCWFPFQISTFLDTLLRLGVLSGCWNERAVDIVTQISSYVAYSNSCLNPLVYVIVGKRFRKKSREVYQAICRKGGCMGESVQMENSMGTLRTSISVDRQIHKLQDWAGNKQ
Protocol: Thus in vitro studies were performed on standard assay systems, namely, guinea-pig ileum (GPI), rat uterus (RU) and rabbit jugular vein (RJV). […] The PA2 can be defined as the negative logarithm of the molar concentration of the antagonist in the presence of which the potency of the agonist is reduced two-fold, i.e. twice the amount of agonist is required to produce a given response in the presence of, than in the absence of, the antagonist. A high potency of antagonism is indicated by a high PA2 value, i.e., a low concentration of antagonist is effective.
The percentage recovery (% Rec) was also determined for compounds with respect to each assay.
With respect to duration of activity, it is noted that after exposure to the highest concentration of antagonist, each tissue was washed extensively and then assessed for recovery from the antagonist effect.
Potency in the rat uterus assay was assessed as described above and PA2 values determined.

[2] = target: T2, bradykinin receptor of the B2 class (guinea-pig ileum) (Cavia porcellus, UniProt O70526)
T2 sequence (O70526 1-372): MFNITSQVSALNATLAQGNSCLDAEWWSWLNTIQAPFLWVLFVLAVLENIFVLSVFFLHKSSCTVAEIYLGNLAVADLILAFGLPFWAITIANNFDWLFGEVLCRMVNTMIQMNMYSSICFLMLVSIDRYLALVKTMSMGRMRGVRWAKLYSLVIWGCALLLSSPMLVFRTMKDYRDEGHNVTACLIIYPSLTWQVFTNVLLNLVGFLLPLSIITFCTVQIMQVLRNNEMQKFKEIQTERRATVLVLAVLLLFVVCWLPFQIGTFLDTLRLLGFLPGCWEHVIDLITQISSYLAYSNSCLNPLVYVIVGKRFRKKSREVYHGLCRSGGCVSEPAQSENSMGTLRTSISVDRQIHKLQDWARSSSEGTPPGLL

[3] = Table C, rat uterus, P.A. = Partial Agonist, read-out: pA2 MONOMER (converted)
[4] = Table C, rat uterus, read-out: pA2 DIMER (converted)
[5] = Table E, read-out: RAT UTERUS pA2 (converted)

Question: With CC(C)C[C@H](NC(=O)[C@@H](Cc1ccccc1)NC(=O)[C@H](CO)NC(=O)[C@H](CS)NC(=O)CNC(=O)[C@@H]1C[C@@H](O)CN1C(=O)[C@@H]1CCCN1C(=O)[C@H](CCCNC(=N)N)NC(=O)[C@H](N)CCCNC(=N)N)C(=O)N[C@@H](CCCNC(=N)N)C(=O)O [CP-0144] (HELM PEPTIDE1{[dR].R.P.[Hyp].G.C.S.[dF].L.R}$$$$V2.0) as the molecule, how does the “% REC MONOMER” value ([1]; Table C, rat uterus) read?
Answer: 95%

Question: What about the Kb [1, 3] of the same molecule?
Answer: 63.1 nM

Question: What about the Kb [2] of the same molecule?
Answer: ~501 nM

Question: CC(C)C[C@H](NC(=O)[C@@H](Cc1ccccc1)NC(=O)[C@H](CO)NC(=O)[C@H](Cc1ccccc1)NC(=O)CNC(=O)[C@@H]1C[C@@H](O)CN1C(=O)[C@@H]1CCCN1C(=O)[C@H](CCCNC(=N)N)NC(=O)[C@@H](N)CS)C(=O)N[C@@H](CCCNC(=N)N)C(=O)O [CP-0140] (HELM PEPTIDE1{C.R.P.[Hyp].G.F.S.[dF].L.R}$$$$V2.0) was tested. Which “% REC MONOMER” value ([1]; Table C, rat uterus) did it give?
Answer: 50%

Question: And the Kb [1, 3]?
Answer: 100 nM

Question: And the Kb [2]?
Answer: ~316 nM

Question: For CC(C)C[C@H](NC(=O)[C@@H](Cc1ccccc1)NC(=O)[C@H](CO)NC(=O)[C@H](Cc1ccccc1)NC(=O)CNC(=O)[C@@H]1C[C@@H](O)CN1C(=O)[C@@H]1CCCN1C(=O)[C@H](CSC1CC(=O)N(CCCCCCN2C(=O)CC(SC[C@H](NC(=O)[C@H](N)CCCNC(=N)N)C(=O)N3CCC[C@H]3C(=O)N3C[C@H](O)C[C@H]3C(=O)NCC(=O)N[C@@H](Cc3ccccc3)C(=O)N[C@@H](CO)C(=O)N[C@H](Cc3ccccc3)C(=O)N[C@@H](CC(C)C)C(=O)N[C@@H](CCCNC(=N)N)C(=O)O)C2=O)C1=O)NC(=O)[C@H](N)CCCNC(=N)N)C(=O)N[C@@H](CCCNC(=N)N)C(=O)O (stereo partly drawn) [CP-0153] (HELM PEPTIDE1{[dR].C.P.[Hyp].G.F.S.[dF].L.R}|PEPTIDE2{[dR].C.P.[Hyp].G.F.S.[dF].L.R}|CHEM1{[O=C1CC([*:1])C(=O)N1CCCCCCN1C(=O)CC([*:2])C1=O]}$PEPTIDE1,CHEM1,2:R3-1:R1|PEPTIDE2,CHEM1,2:R3-1:R2$$$V2.0), which “% REC DIMER” value ([1]; Table C, rat uterus) is on record?
Answer: 100%

Question: And the Kb [1, 4]?
Answer: 20 nM

Question: And the Kb [2]?
Answer: ~20 nM

Question: With CC(C)C[C@H](NC(=O)[C@@H](Cc1ccccc1)NC(=O)[C@H](CO)NC(=O)[C@H](Cc1ccccc1)NC(=O)CNC(=O)[C@H](CSC1CC(=O)N(CCCCCCN2C(=O)CC(SC[C@H](NC(=O)[C@@H]3CCCN3C(=O)[C@H](CCCNC(=N)N)NC(=O)[C@H](N)CCCNC(=N)N)C(=O)NCC(=O)N[C@@H](Cc3ccccc3)C(=O)N[C@@H](CO)C(=O)N[C@H](Cc3ccccc3)C(=O)N[C@@H](CC(C)C)C(=O)N[C@@H](CCCNC(=N)N)C(=O)O)C2=O)C1=O)NC(=O)[C@@H]1CCCN1C(=O)[C@H](CCCNC(=N)N)NC(=O)[C@H](N)CCCNC(=N)N)C(=O)N[C@@H](CCCNC(=N)N)C(=O)O (stereo partly drawn) [CP-0155] (HELM PEPTIDE1{[dR].R.P.C.G.F.S.[dF].L.R}|PEPTIDE2{[dR].R.P.C.G.F.S.[dF].L.R}|CHEM1{[O=C1CC([*:1])C(=O)N1CCCCCCN1C(=O)CC([*:2])C1=O]}$PEPTIDE1,CHEM1,4:R3-1:R1|PEPTIDE2,CHEM1,4:R3-1:R2$$$V2.0) as the molecule, how does the “% REC DIMER” value ([1]; Table C, rat uterus) read?
Answer: 100%

Question: And the Kb [1, 4]?
Answer: 631 nM

Question: What about the Kb [2] of the same molecule?
Answer: ~79.4 nM

Question: What does the source list for CC(C)C[C@H](NC(=O)[C@@H](Cc1ccccc1)NC(=O)[C@H](CSC1CC(=O)N(CCN(CCN2C(=O)CC(SC[C@H](NC(=O)[C@H](Cc3ccccc3)NC(=O)CNC(=O)[C@@H]3C[C@@H](O)CN3C(=O)[C@@H]3CCCN3C(=O)[C@H](CCCNC(=N)N)NC(=O)[C@H](N)CCCNC(=N)N)C(=O)N[C@H](Cc3ccccc3)C(=O)N[C@@H](CC(C)C)C(=O)N[C@@H](CCCNC(=N)N)C(=O)O)C2=O)CCN2C(=O)CC(SC[C@H](NC(=O)[C@H](Cc3ccccc3)NC(=O)CNC(=O)[C@@H]3C[C@@H](O)CN3C(=O)[C@@H]3CCCN3C(=O)[C@H](CCCNC(=N)N)NC(=O)[C@H](N)CCCNC(=N)N)C(=O)N[C@H](Cc3ccccc3)C(=O)N[C@@H](CC(C)C)C(=O)N[C@@H](CCCNC(=N)N)C(=O)O)C2=O)C1=O)NC(=O)[C@H](Cc1ccccc1)NC(=O)CNC(=O)[C@@H]1C[C@@H](O)CN1C(=O)[C@@H]1CCCN1C(=O)[C@H](CCCNC(=N)N)NC(=O)[C@H](N)CCCNC(=N)N)C(=O)N[C@@H](CCCNC(=N)N)C(=O)O (stereo partly drawn) [CP-0176] (HELM PEPTIDE1{[dR].R.P.[Hyp].G.F.C.[dF].L.R}|PEPTIDE2{[dR].R.P.[Hyp].G.F.C.[dF].L.R}|PEPTIDE3{[dR].R.P.[Hyp].G.F.C.[dF].L.R}|CHEM1{[O=C1CC([*:1])C(=O)N1CCN(CCN1C(=O)CC([*:2])C1=O)CCN1C(=O)CC([*:3])C1=O]}$PEPTIDE1,CHEM1,7:R3-1:R1|PEPTIDE2,CHEM1,7:R3-1:R2|PEPTIDE3,CHEM1,7:R3-1:R3$$$V2.0)?
Answer: RAT UTERUS % RECOVERED ([1]; Table E): 50%; Kb [1, 5]: 2.51 nM; Kb [2]: ~100 nM

Question: CC(C)C[C@H](NC(=O)[C@@H](Cc1ccccc1)NC(=O)[C@H](CO)NC(=O)[C@H](Cc1ccccc1)NC(=O)CNC(=O)[C@@H]1C[C@@H](O)CN1C(=O)[C@@H]1CCCN1C(=O)[C@H](CCCNC(=N)N)NC(=O)[C@@H](N)CSC1CC(=O)N(CCCCCCN2C(=O)CC(SC[C@H](N)C(=O)N[C@@H](CCCNC(=N)N)C(=O)N3CCC[C@H]3C(=O)N3C[C@H](O)C[C@H]3C(=O)NCC(=O)N[C@@H](Cc3ccccc3)C(=O)N[C@@H](CO)C(=O)N[C@H](Cc3ccccc3)C(=O)N[C@@H](CC(C)C)C(=O)N[C@@H](CCCNC(=N)N)C(=O)O)C2=O)C1=O)C(=O)N[C@@H](CCCNC(=N)N)C(=O)O (stereo partly drawn) [CP-0152] (HELM PEPTIDE1{C.R.P.[Hyp].G.F.S.[dF].L.R}|PEPTIDE2{C.R.P.[Hyp].G.F.S.[dF].L.R}|CHEM1{[O=C1CC([*:1])C(=O)N1CCCCCCN1C(=O)CC([*:2])C1=O]}$PEPTIDE1,CHEM1,1:R3-1:R1|PEPTIDE2,CHEM1,1:R3-1:R2$$$V2.0) was tested. Which “% REC DIMER” value ([1]; Table C, rat uterus) did it give?
Answer: 50%

Question: And the Kb [1, 4]?
Answer: 12.6 nM

Question: What about the Kb [2] of the same molecule?
Answer: ~316 nM

Question: Which “% REC MONOMER” value ([1]; Table C, rat uterus) does the source give for CC(C)C[C@H](NC(=O)[C@@H](Cc1ccccc1)NC(=O)[C@H](CO)NC(=O)[C@H](Cc1ccccc1)NC(=O)CNC(=O)[C@@H]1C[C@@H](O)CN1C(=O)[C@@H]1CCCN1C(=O)[C@H](CCCNC(=N)N)NC(=O)[C@H](N)CS)C(=O)N[C@@H](CCCNC(=N)N)C(=O)O [CP-0149] (HELM PEPTIDE1{[dC].R.P.[Hyp].G.F.S.[dF].L.R}$$$$V2.0) here?
Answer: 75%

Question: What about the Kb [1, 3] of the same molecule?
Answer: 79.4 nM

Question: What about the Kb [2] of the same molecule?
Answer: ~501 nM

Question: Which “% REC DIMER” value ([1]; Table C, rat uterus) does the source give for CC(C)C[C@H](NC(=O)[C@@H](Cc1ccccc1)NC(=O)[C@H](CO)NC(=O)[C@H](CSC1CC(=O)N(CCCCCCN2C(=O)CC(SC[C@H](NC(=O)CNC(=O)[C@@H]3C[C@@H](O)CN3C(=O)[C@@H]3CCCN3C(=O)[C@H](CCCNC(=N)N)NC(=O)[C@H](N)CCCNC(=N)N)C(=O)N[C@@H](CO)C(=O)N[C@H](Cc3ccccc3)C(=O)N[C@@H](CC(C)C)C(=O)N[C@@H](CCCNC(=N)N)C(=O)O)C2=O)C1=O)NC(=O)CNC(=O)[C@@H]1C[C@@H](O)CN1C(=O)[C@@H]1CCCN1C(=O)[C@H](CCCNC(=N)N)NC(=O)[C@H](N)CCCNC(=N)N)C(=O)N[C@@H](CCCNC(=N)N)C(=O)O (stereo partly drawn) [CP-0156] (HELM PEPTIDE1{[dR].R.P.[Hyp].G.C.S.[dF].L.R}|PEPTIDE2{[dR].R.P.[Hyp].G.C.S.[dF].L.R}|CHEM1{[O=C1CC([*:1])C(=O)N1CCCCCCN1C(=O)CC([*:2])C1=O]}$PEPTIDE1,CHEM1,6:R3-1:R1|PEPTIDE2,CHEM1,6:R3-1:R2$$$V2.0) here?
Answer: 75%

Question: What about the Kb [1, 4] of the same molecule?
Answer: 7.94 nM

Question: What about the Kb [2] of the same molecule?
Answer: ~12.6 nM

Question: Which “RAT UTERUS % RECOVERED” value ([1]; Table E) does the source give for CC(C)C[C@H](NC(=O)[C@@H](Cc1ccccc1)NC(=O)[C@H](CSC1CC(=O)N(c2ccc(N3C(=O)CC(SC[C@H](NC(=O)[C@H](Cc4ccccc4)NC(=O)CNC(=O)[C@@H]4C[C@@H](O)CN4C(=O)[C@@H]4CCCN4C(=O)[C@H](CCCNC(=N)N)NC(=O)[C@H](N)CCCNC(=N)N)C(=O)N[C@H](Cc4ccccc4)C(=O)N[C@@H](CC(C)C)C(=O)N[C@@H](CCCNC(=N)N)C(=O)O)C3=O)cc2)C1=O)NC(=O)[C@H](Cc1ccccc1)NC(=O)CNC(=O)[C@@H]1C[C@@H](O)CN1C(=O)[C@@H]1CCCN1C(=O)[C@H](CCCNC(=N)N)NC(=O)[C@H](N)CCCNC(=N)N)C(=O)N[C@@H](CCCNC(=N)N)C(=O)O (stereo partly drawn) [CP-0170] (HELM PEPTIDE1{[dR].R.P.[Hyp].G.F.C.[dF].L.R}|PEPTIDE2{[dR].R.P.[Hyp].G.F.C.[dF].L.R}|CHEM1{[O=C1CC([*:1])C(=O)N1c1ccc(N2C(=O)CC([*:2])C2=O)cc1]}$PEPTIDE1,CHEM1,7:R3-1:R1|PEPTIDE2,CHEM1,7:R3-1:R2$$$V2.0) here?
Answer: 100%

Question: What about the Kb [1, 5] of the same molecule?
Answer: 100 nM

Question: And the Kb [2]?
Answer: ~501 nM
